Data: patent US4528380A, “5-(1-Propyl)n-butyl tetrazoles” (Delalande S.A., priority 1981, dated 1985)

Tests used:
[1] = system: mortality induced by bicucullin; assay: Protection against mortality induced by intravenous bicucullin (anti-convulsive activity); format: in vivo; conditions: Mus musculus, ip; mice, compound i.p.; intravenous injection of 0.7 mg/kg of bicucullin; read-out: ED 50 against mortality induced by bicucullin
[2] = Acute toxicity, intraperitoneal, method of Miller and Tainter; conditions: mouse, in vivo, ip, mice, read-out: Acute toxicity LD 50
Method: Acute toxicity is assessed intraperitoneally on mice according to the method of Miller and Tainter described in Proc. Soc. Exp. Biol. Med. 57, 261, (1944).

Row | Compound | ED50 [1] [mg/kg] | LD50 [2] [mg/kg]
1 | CCC(C)(C)c1nn[nH]n1 [compound 1] | 100 | > 400
2 | CCCCC(C)(CC)c1nn[nH]n1 (centres unmarked) [compound 3] | 120 | 320
3 | CCCC(CCC)(CCC)c1nn[nH]n1 [compound 5] | 44 | 280
4 | CCCC(CCC)c1nn[nH]n1 [compound 6, [1-(1-n propyl)nbutyl] tetrazole] | 135 | > 400
